Source: ChEMBL document CHEMBL1132756, “A new benzoangelicin with strong photobiological activity” (Bioorg Med Chem Lett, 2000)
pIC50: −log10 of the molar value. Active and inactive are the calls of the source. The rule behind the calls is not given here.

What was measured:
[1] = species: Cavia porcellus; test: Phototoxicity (50 mg cm e-2) was evaluated; No phototoxicity; type: functional, organism-based
[2] = tested on: HL-60; test: In vitro antiproliferative activity against human promyelocytic (HL-60) cells; type: functional, cell-based
[3] = tested on: HeLa; test: In vitro antiproliferative activity against human cervix adenocarcinoma (HeLa) cells; type: functional, cell-based
[4] = species: Cavia porcellus; test: Phototoxicity (10 mg/cm**2) was evaluated; highly toxic; type: functional, organism-based
[5] = tested on: Cavia porcellus; test: Compound was evaluated for the erythema formation; +++ means severe erythema with edema; type: functional, organism-based

| pIC50 [2] | pIC50 [3] | Structure (SMILES) | Phototoxicity [1] | Phototoxicity [4] | Erythema formation [5] |
| --- | --- | --- | --- | --- | --- |
| 5.16 | < 4.70 | Cc1cc(=O)oc2c1c(O)cc1oc3ccccc3c12 | No phototoxicity | – | – |
| < 4.70 | < 4.70 | COc1cc2oc3ccccc3c2c2oc(=O)cc(C)c12 | No phototoxicity | – | – |
| 5.27 | 5.00 | COc1c2occc2cc2ccc(=O)oc12 [METHOXSALEN] | – | Toxic | Active |
| 6.28 | 5.95 | Cc1cc(=O)oc2c1c(OCCCN(C)C)cc1oc3ccccc3c12 | No phototoxicity | – | – |
